Results taken from patent US9981908B2, “Amino acid derivatives” (priority 2013, dated 2018).
Where two headings read alike, the source gives them in different places.

Molecular target: T1, pylRS/tRNA pair (Methanosarcina mazei, UniProt Q8PWY1, Y384F)
T1 construct: expressed in transfected cells; host or cells: HEK293 cells stably expressing pylRS
Assay type: cell-based
Settings: HEK293 cells stably expressing pylRS, nnAAs at 2 mM for 2-3 days; for incorporation in the GFP reporter gene (green cells) / MFI: tRNApyl and GFPY40 reporter; for Positive GFP Assay: transfected with tRNApyl and GFPY40 reporter, visual inspection under the microscope; for MFI: GFP fluorescence by flow cytometry, geometric mean of the fluorescent cells
Text: An in vitro cell based assay was developed to assess the compatibility of the pylRS/tRNA pair and the pyrrolysine analogs of the present invention (nnAAs) by and the efficiency of nnAAs integration into a target protein. For this, HEK293 cells stably expressing pylRS (SEQ ID NO 4) were transiently transfected with plasmids for the expression of tRNApyl (SEQ ID NO 7) and a reporter construct encoding GFPY40 (containing amber codon in place of tyrosine at amino acid residue number 40 (where 1 is the initiator methionine)) (SEQ ID NOs 10 and 11) using standard transfection protocols. Transfected cells were incubated with nnAAs at 2 mM for 2-3 days GFP production was analyzed qualitatively by visual inspection under the microscope. The GFP fluorescence was quantified by flow cytometry using an Accuri flow cytometer and the geometric mean of the fluorescent cells determined.
This cell based assay was used to determine whether the different nnAAs were suitable substrates for the pylRS and allowed its translation into a target protein. Cells expressing the PylRS/tRNApyl pair and containing a vector encoding the GFPY40 reporter gene were incubated in the presence of the nnAAs. nnAAs that are readily utilized by the PylRS/tRNApyl pair support the translation of the nnAA into the amber site of GFP and allow read-through of the gene producing full length GFP (fluorescent protein). The fluorescence intensity of the cells depends on the efficiency of nnAA incorporation. Thus, nnAAs that are poorly utilized produce weakly fluorescent or non-fluorescing cells. […] Furthermore, the relative expression levels in each sample was compared to those generated by substrates known to be efficiently utilized by pylRS.

T1 sequence (Q8PWY1 whole entry Y384F): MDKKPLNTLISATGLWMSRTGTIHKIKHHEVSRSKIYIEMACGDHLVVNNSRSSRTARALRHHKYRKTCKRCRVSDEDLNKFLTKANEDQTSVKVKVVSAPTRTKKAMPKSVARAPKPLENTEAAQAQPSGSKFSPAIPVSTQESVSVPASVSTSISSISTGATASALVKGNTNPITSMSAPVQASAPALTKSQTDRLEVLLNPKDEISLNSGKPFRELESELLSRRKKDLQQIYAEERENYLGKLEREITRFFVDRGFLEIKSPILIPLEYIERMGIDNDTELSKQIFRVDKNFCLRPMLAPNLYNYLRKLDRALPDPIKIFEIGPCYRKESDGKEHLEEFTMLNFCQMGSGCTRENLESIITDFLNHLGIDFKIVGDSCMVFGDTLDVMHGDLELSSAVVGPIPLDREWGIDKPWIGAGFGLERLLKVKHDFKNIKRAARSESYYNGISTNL

SMILES	incorporation in the GFP reporter gene (green cells)	Positive GFP Assay	also measured
CCCC(N=[N+]=[N-])C(=O)NCCCC[C@H](N)C(=O)O (stereo partly drawn) [Formula VII.1, (2S)-2-amino-6-(2-azidopentanamido)hexanoic acid]	incorporated in the GFP reporter gene and yield green cells	Yes	
C#CCOC(=O)NCCSCC(N)C(=O)O (stereo in doubt) [Formula III.2, (2S)-2-amino-3-[(2-{[(prop-2-yn-1-yloxy)carbonyl]amino}ethyl)sulfanyl]propanoic acid]	incorporated in the GFP reporter gene and yield green cells	Yes	
C=CCNC(=O)NCCCC[C@H](N)C(=O)O [Formula IA.5, (2S)-2-amino-6-{[(prop-2-en-1-yl)carbamoyl]amino}hexanoic acid]	incorporated in the GFP reporter gene and yield green cells		
C=CCOC(=O)NCC(=O)NC[C@H](N)C(=O)O [Formula V.3, (2S)-2-amino-3-(2-{[(prop-2-en-1-yloxy)carbonyl]amino}acetamido)propanoic acid]	incorporated in the GFP reporter gene and yield green cells	Yes	
[N-]=[N+]=NCCNC(=O)NCCCC[C@H](N)C(=O)O [Formula IA.4, (2S)-2-amino-6-{[(2-azidoethyl)carbamoyl]amino}hexanoic acid]	incorporated in the GFP reporter gene and yield green cells	Yes	MFI: 254250
C#CCOC(=O)NCCCC[C@H](N)C(=O)O [Formula IA.2, (2S)-2-amino-6-{[(prop-2-yn-1-yloxy)carbonyl]amino}hexanoic acid]		Yes	MFI: 1,676,250; MFI (listed as 1A.2): 1676250
[N-]=[N+]=NCCOC(=O)NCC(=O)NC[C@H](N)C(=O)O [Formula V.1, (2S)-2-amino-3-(2-{[(2-azidoethoxy)carbonyl]amino}acetamido)propanoic acid]	incorporated in the GFP reporter gene and yield green cells	Yes	
C=CCOC(=O)NCCCC[C@H](N)C(=O)O [Formula IA.3, (2S)-2-amino-6-{[(prop-2-en-1-yloxy)carbonyl]amino}hexanoic acid]		Yes	MFI: 2,250,000; MFI (listed as 1A.3): 2250000
[N-]=[N+]=NCCOC(=O)NCCSCC(N)C(=O)O (stereo in doubt) [Formula III.1, (2S)-2-amino-3-[(2-{[(2-azidoethoxy)carbonyl]amino}ethyl)sulfanyl]propanoic acid]	incorporated in the GFP reporter gene and yield green cells	Yes	
C=CCOC(=O)NCCSCC(N)C(=O)O (stereo in doubt) [Formula III.3, (2S)-2-amino-3-[(2-{[(prop-2-en-1-yloxy)carbonyl]amino}ethyl)sulfanyl]propanoic acid]	incorporated in the GFP reporter gene and yield green cells	Yes	
[N-]=[N+]=NCCOC(=O)NCCCC[C@H](N)C(=O)O [Formula IA.1, (2S)-2-amino-6-{[(2-azidoethoxy)carbonyl]amino}hexanoic acid]		Yes	MFI: 931,289; MFI (listed as 1A.1): 931289
C=CCOC(=O)NC(CCN=[N+]=[N-])C(=O)NC[C@H](N)C(=O)O (stereo partly drawn) [Formula VIII.1, (2S)-2-amino-3-(4-azido-2-{[(prop-2-en-1-yloxy)carbonyl]amino}butanamido)propanoic acid]		Yes	
C#CCOC(=O)NCC(=O)NC[C@H](N)C(=O)O [Formula V.2, (2S)-2-amino-3-(2-{[(prop-2-yn-1-yloxy)carbonyl]amino}acetamido)propanoic acid]	incorporated in the GFP reporter gene and yield green cells		
[N-]=[N+]=NCCNC(=O)CCCSCC(N)C(=O)O (stereo in doubt) [Formula III.13, (2S)-2-amino-3-({3-[(2-azidoethyl)carbamoyl]propyl}sulfanyl)propanoic acid]	incorporated in the GFP reporter gene and yield green cells	Yes	
C=CCNC(=O)CCCSCC(N)C(=O)O (stereo in doubt) [Formula III.12, (2S)-2-amino-3-({3-[(prop-2-en-1-yl)carbamoyl]propyl}sulfanyl)propanoic acid]	incorporated in the GFP reporter gene and yield green cells	Yes	
